Experimental findings from ChEMBL document CHEMBL3991601, “The target landscape of clinical kinase drugs” (Science, 2017) are described below.

As usually defined, the Kd is the equilibrium constant for the complex coming apart.

Calls of active or inactive are those of the source.

For assay [1], the target named is T1, Phosphatidylinositol 5-phosphate 4-kinase type-2 gamma (Homo sapiens, UniProt Q8TBX8).
T1 sequence (Q8TBX8 whole entry): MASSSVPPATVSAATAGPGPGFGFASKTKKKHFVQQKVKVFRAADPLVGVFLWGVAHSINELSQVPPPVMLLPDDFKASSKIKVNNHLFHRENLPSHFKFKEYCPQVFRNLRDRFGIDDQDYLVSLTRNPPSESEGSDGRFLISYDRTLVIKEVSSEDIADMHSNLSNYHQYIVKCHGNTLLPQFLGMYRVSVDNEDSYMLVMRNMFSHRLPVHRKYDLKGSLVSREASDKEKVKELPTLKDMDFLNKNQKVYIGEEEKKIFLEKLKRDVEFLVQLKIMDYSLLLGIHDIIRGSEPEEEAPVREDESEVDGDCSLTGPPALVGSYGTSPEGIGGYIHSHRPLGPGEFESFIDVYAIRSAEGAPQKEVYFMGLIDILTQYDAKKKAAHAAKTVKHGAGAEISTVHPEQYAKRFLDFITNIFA

The target of assay [2] is T2, Bifunctional phosphoribosylaminoimidazole carboxylase/phosphoribosylaminoimidazole succinocarboxamide synthetase (Homo sapiens, UniProt P22234).
T2 sequence (P22234 whole entry): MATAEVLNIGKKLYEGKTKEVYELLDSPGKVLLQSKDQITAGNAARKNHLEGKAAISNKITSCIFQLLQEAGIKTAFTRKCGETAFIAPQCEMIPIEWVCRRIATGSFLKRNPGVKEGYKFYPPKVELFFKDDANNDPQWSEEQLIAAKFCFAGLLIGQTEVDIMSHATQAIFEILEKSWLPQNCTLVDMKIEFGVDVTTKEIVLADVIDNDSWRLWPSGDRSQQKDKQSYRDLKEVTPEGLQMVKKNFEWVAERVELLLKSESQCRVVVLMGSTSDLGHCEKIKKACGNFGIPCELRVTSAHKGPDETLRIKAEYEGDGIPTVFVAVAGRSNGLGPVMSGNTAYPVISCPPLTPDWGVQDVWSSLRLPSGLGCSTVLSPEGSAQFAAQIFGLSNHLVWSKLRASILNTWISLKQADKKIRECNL

For assay [3], the target named is Structural maintenance of chromosomes protein 2 (Homo sapiens, UniProt O95347).
For assay [4], the target named is T3, Ras-related protein Rab-10 (Homo sapiens, UniProt P61026).
T3 sequence (P61026 whole entry): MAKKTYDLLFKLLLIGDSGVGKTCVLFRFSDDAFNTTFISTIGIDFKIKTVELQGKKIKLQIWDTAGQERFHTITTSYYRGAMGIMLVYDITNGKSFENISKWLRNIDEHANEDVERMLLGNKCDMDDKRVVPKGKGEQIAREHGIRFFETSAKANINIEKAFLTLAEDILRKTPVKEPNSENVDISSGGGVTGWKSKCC

The target in assay [5] is T4, Dual specificity mitogen-activated protein kinase kinase 3 (Homo sapiens, UniProt P46734).
T4 sequence (P46734 whole entry): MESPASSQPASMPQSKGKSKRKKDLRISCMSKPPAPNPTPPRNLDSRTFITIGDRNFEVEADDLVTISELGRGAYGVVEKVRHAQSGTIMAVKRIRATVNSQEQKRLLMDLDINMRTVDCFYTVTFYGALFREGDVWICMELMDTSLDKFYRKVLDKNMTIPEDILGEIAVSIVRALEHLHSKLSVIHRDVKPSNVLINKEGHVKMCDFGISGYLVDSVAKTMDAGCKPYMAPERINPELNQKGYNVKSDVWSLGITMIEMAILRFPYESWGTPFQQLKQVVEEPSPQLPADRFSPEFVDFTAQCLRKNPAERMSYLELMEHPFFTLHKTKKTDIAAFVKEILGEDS

Assay [6] addresses Serine/threonine-protein kinase B-raf (Homo sapiens, UniProt P15056).
The target in assay [7] is RAC-gamma serine/threonine-protein kinase (Homo sapiens, UniProt Q9Y243).
The target in assay [8] is Ribosomal protein S6 kinase beta-1 (Homo sapiens, UniProt P23443).
The target in assay [9] is T5, Ephrin type-B receptor 3 (Homo sapiens, UniProt P54753).
T5 sequence (P54753 whole entry): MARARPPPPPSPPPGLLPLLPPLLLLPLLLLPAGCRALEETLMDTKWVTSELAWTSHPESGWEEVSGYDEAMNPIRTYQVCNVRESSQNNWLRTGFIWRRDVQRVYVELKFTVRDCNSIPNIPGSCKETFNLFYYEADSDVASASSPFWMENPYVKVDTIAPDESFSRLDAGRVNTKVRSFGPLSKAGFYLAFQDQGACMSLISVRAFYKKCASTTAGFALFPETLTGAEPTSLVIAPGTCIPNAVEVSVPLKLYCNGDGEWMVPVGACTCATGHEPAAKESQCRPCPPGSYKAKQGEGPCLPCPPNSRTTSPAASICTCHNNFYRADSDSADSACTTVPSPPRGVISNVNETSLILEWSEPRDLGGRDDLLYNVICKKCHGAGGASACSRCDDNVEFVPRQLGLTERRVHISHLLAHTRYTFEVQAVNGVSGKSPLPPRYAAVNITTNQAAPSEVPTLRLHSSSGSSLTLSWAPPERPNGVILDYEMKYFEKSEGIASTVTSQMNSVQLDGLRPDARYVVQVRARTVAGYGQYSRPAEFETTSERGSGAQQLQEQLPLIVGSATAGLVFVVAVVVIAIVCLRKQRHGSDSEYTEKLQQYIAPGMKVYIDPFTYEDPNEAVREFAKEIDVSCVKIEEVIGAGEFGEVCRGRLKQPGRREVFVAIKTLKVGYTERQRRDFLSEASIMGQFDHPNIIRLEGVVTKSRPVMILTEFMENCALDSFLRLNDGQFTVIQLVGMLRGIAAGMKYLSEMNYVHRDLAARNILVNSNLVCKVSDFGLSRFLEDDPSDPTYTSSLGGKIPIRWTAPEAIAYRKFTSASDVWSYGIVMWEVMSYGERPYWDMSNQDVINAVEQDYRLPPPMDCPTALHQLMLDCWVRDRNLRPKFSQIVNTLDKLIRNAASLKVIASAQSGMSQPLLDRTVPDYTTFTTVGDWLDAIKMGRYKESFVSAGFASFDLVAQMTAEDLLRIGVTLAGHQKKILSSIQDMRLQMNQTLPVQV
Further: in the data inactive means no Kd found up to 30 µM.

RAC-gamma serine/threonine-protein kinase, sequence (Q9Y243 whole entry): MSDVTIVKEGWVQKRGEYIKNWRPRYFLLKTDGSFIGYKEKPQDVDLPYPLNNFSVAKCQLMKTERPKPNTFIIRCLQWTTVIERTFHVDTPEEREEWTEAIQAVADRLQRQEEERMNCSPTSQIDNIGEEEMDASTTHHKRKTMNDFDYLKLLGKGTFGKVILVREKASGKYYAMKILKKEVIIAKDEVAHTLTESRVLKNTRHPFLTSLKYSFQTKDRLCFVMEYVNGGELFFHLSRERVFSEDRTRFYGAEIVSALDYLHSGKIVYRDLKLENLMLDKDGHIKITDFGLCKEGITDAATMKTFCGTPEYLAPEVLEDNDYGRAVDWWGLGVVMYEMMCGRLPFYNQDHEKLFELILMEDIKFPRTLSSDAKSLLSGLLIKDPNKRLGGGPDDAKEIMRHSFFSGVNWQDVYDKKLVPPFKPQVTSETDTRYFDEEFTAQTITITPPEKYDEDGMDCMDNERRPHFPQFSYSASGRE
Ribosomal protein S6 kinase beta-1, sequence (P23443 whole entry): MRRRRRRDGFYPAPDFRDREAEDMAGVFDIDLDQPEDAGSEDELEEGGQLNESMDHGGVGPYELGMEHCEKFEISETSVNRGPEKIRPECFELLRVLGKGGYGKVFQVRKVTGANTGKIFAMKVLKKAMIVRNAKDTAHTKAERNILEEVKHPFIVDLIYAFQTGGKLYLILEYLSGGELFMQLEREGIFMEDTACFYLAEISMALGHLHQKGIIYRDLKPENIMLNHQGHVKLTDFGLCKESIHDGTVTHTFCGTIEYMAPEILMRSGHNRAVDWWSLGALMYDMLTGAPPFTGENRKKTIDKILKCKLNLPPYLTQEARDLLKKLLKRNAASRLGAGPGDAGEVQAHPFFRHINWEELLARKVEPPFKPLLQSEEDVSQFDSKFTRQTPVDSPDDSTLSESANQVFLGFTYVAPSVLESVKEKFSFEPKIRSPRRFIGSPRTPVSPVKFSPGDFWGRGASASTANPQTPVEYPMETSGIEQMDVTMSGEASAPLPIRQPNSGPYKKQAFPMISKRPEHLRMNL
Structural maintenance of chromosomes protein 2, sequence (O95347 whole entry): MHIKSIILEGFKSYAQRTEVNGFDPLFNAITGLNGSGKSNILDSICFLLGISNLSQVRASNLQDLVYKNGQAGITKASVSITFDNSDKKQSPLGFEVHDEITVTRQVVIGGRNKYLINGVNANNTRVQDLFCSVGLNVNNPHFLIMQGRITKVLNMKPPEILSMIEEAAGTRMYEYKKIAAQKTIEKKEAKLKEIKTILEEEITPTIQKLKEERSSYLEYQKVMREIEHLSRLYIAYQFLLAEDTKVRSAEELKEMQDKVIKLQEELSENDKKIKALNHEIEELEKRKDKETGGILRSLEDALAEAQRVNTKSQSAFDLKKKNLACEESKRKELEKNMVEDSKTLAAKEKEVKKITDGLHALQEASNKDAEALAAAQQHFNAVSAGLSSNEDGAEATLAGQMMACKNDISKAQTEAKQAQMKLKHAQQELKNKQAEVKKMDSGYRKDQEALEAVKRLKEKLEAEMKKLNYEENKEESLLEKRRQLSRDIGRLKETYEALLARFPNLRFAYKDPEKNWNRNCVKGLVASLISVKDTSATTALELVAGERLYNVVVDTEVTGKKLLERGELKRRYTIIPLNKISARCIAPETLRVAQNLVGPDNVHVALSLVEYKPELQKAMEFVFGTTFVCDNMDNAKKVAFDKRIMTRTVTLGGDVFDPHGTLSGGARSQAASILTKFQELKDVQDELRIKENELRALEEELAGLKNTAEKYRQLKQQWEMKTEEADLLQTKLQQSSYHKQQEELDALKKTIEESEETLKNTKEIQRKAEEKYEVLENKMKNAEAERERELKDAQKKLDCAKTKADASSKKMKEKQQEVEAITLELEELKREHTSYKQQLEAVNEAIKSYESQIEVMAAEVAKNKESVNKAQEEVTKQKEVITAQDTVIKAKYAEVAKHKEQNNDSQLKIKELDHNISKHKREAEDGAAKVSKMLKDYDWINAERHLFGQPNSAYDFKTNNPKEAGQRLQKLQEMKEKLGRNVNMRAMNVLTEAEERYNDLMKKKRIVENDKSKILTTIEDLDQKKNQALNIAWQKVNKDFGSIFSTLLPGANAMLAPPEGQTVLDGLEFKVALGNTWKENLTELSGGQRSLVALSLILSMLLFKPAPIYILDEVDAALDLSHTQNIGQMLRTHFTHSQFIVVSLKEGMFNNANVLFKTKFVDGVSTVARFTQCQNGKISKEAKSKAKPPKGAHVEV
Serine/threonine-protein kinase B-raf, sequence (P15056 whole entry): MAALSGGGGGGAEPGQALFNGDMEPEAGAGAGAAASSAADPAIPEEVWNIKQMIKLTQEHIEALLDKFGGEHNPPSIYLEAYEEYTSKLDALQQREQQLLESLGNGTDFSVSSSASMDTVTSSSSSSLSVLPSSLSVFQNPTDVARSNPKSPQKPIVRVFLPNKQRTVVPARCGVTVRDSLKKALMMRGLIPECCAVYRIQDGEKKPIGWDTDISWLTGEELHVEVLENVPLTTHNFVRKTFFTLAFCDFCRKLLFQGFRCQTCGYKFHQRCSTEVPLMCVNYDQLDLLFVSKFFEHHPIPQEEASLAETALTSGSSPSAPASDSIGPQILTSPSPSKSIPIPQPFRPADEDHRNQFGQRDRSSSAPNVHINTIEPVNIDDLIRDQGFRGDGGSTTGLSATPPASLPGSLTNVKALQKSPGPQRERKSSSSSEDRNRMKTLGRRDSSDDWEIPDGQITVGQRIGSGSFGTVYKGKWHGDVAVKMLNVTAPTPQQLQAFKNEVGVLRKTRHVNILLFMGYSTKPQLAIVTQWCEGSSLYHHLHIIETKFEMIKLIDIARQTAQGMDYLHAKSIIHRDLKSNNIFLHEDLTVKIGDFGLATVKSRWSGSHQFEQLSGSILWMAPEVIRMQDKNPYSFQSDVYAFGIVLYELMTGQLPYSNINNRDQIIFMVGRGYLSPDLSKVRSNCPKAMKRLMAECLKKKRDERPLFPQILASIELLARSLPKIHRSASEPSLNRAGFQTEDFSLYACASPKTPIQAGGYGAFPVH

On to `O=C(Nc1nc2cccc(-c3ccc(CN4CCS(=O)(=O)CC4)cc3)n2n1)C1CC1` [FILGOTINIB], for which the Kd in [1], in [2], in [3], in [4], in assay [5] and in [6] was > 30 µM (inactive) throughout. Moreover, the Kd in assay [7], in assay [8] and in assay [9] was > 30 µM (inactive) each time.
For the molecule `Cc1cccc(-c2nn3c(c2-c2ccnc4ccc(C(N)=O)cc24)CCC3)n1` [GALUNISERTIB], the Kd in [1], in [2], in assay [3], in [4], in assay [5] and in [6] was > 30 µM (inactive) in each case. The Kd in [7], in assay [8] and in assay [9] was > 30 µM (inactive) each time.
`COc1ccc(S(=O)(=O)N(C(C)=O)c2ccccc2/C=C/c2cc[n+]([O-])cc2)cc1` [HMN-214]: the Kd in assay [1], in [2], in assay [3], in [4], in [5] and in assay [6] was > 30 µM (inactive) throughout. Also, the Kd in [7], in assay [8] and in [9] was > 30 µM (inactive) in each case.
Consider `CN(C[C@@H]1COCCO1)S(=O)(=O)Nc1ccc2ccc3ncc(-c4cnn(C)c4)cc3c(=O)c2c1` [MK-2461], for which the Kd in [1] is 1.03 µM (active); in assay [2], > 30 µM (inactive); in assay [3] it was > 30 µM (inactive); in assay [4] it was > 30 µM (inactive); in [5] it was > 30 µM (inactive); in [6] it was > 30 µM (inactive). The Kd in [7], in assay [8] and in assay [9] was > 30 µM (inactive) each time.
`Cn1cc(-c2cnc3ccc4ccc(CS(=O)(=O)NCc5ccccn5)cc4c(=O)c3c2)cn1` [MK-8033]: the Kd in assay [1], in assay [2], in [3], in assay [4], in assay [5] and in [6] was > 30 µM (inactive) each time. The Kd in assay [7], in [8] and in [9] was > 30 µM (inactive) each time.
Take `FC(F)(F)c1ccc(/C=C/c2nc(COc3ccc(CCCCn4ccnn4)cc3)co2)cc1` [MUBRITINIB]: the Kd in assay [1], in assay [2], in assay [3], in [4], in [5] and in assay [6] was > 30 µM (inactive) throughout. The Kd in [7], in [8] and in assay [9] was > 30 µM (inactive) in each case.
`CCOc1cc2ncc(C#N)c(Nc3ccc(F)c(Cl)c3)c2cc1NC(=O)/C=C/CN(C)C` [PELITINIB]: the Kd in assay [1], in assay [2], in [3], in assay [4], in [5] and in [6] was > 30 µM (inactive) in each case. Besides, the Kd in [7], in assay [8] and in assay [9] was > 30 µM (inactive) in each case.
For the molecule `CO[C@H]1C[C@@H]2CC[C@@H](C)[C@@](O)(O2)C(=O)C(=O)N2CCCC[C@H]2C(=O)O[C@H]([C@H](C)C[C@@H]2CC[C@@H](OP(C)(C)=O)[C@H](OC)C2)CC(=O)[C@H](C)/C=C(\C)[C@@H](O)[C@@H](OC)C(=O)[C@H](C)C[C@H](C)/C=C/C=C/C=C/1C` [RIDAFOROLIMUS], the Kd in [1], in [2], in [3], in assay [4], in [5] and in assay [6] was > 30 µM (inactive) throughout. Besides, the Kd in assay [7], in assay [8] and in assay [9] was > 30 µM (inactive) in each case.
In the case of `N#CC1(c2ccc(NC(=O)c3cccnc3NCc3ccncc3)cc2)CCCC1` [RIVOCERANIB], the Kd in [1], in assay [2], in assay [3], in assay [4], in assay [5] and in assay [6] was > 30 µM (inactive) throughout. Moreover, the Kd in [7], in assay [8] and in [9] was > 30 µM (inactive) each time.
Turning to `O=c1[nH]ccc2cc(OC3CCNCC3)ccc12` [SAR-407899 FREE BASE], the Kd in assay [1], in assay [2], in assay [3], in assay [4], in [5] and in assay [6] was > 30 µM (inactive) each time. Moreover, the Kd in assay [7], in [8] and in [9] was > 30 µM (inactive) each time.
For `CN1CCN(CCOc2cc(OC3CCOCC3)c3c(Nc4c(Cl)ccc5c4OCO5)ncnc3c2)CC1` [SARACATINIB], the Kd in assay [1], in assay [2], in [3], in assay [4], in assay [5] and in assay [6] was > 30 µM (inactive) throughout. Besides, the Kd in [7], in [8] and in assay [9] was > 30 µM (inactive) each time.
